In patent publication US4287189A, “O,S-Dialkyl O-oxysulfonylphenyl phosphorothiolates and phosphorodithioates” (priority 1980, dated 1981) one finds LC50 data, which are given here for eleven molecules.

Test [1] has as its system Green peach aphid (GPA). The test can be described thus: Green peach aphid test, sprayed infested broccoli leaves, percent killed after 24 hours. Type of test: in vivo. To be noted: Myzus persicae, lethal concentration at which 50% of the pests are killed. The text has this:
(§1) A test solution containing 600 ppm of test compound is made by dissolving the test compound in a solvent (acetone:methanol, 1:1), adding surfactant and then water to give an acetone:methanol:water system of 10:10:80. A 1:1 mixture of an alkylarylpolyether-alcohol (commercially available under the trademark Triton X-155) and a modified phthalic glycerol alkyd resin (commercially available under the trademark Triton B-1956) can be utilized at the equivalent of one ounce per gallon of test solution as a surfactant.
(§2) For the mite test, infested bean (Phaseolus limeanus) leaf discs (1.25 inches in diameter) containing about 50 mites and for green peach aphid tests, infested broccoli (Brassica oleracea italica) leaves or portions thereof containing about 50 aphids are placed in a Petri dish lid on a moistened piece of cotton. The leaves are then sprayed with the test solution using a rotating turntable. They are held for 24 hours and then the percent killed is determined.

Test [2] concerns Two-spotted spider mite (TSM). The test can be described thus: Mite test, sprayed infested bean leaf discs, percent killed after 24 hours. The test is classed as in vivo. To be noted: Tetranychus urticae, foliar, lethal concentration at which 50% of the pests are killed.
Description: Two-spotted spider mite
as §1, §2

Test [3] concerns Mexican bean beetle (BB). The test can be described thus: Bean beetle test, sprayed bean leaves infested with third instar larvae, percent killed after 48 hours. Type of test: in vivo. Particulars: Epilachna varivestis, lethal concentration at which 50% of the pests are killed.
Description: Mexican bean beetle (BB)
as §1
(§3) For the bean beetle and armyworm test, detached bean leaves on pieces of moistened filter paper are sprayed as above for the mite test in similar dishes and allowed to dry. One such dish is infested with 10 third instar Mexican bean beetle larvae, while another is infested with 10 third instar southern armyworm larvae. The dishes are covered. After holding for 48 hours, the percent killed is obtained.

Test [4] deals with Southern armyworm (AW). As to the kind of experiment: Armyworm test, sprayed bean leaves infested with third instar larvae, percent killed after 48 hours. Type of test: in vivo. To be noted: Spodoptera eridania, lethal concentration at which 50% of the pests are killed.
Description: as §1, §3

For test [5], the system named is Boll weevil (BW). As to the kind of experiment: Boll weevil test, sprayed jars with adult boll weevils, percent kill after 48 hours. The test is classed as in vivo. Particulars: Anthonomus grandis, lethal concentration at which 50% of the pests are killed.
Description: as §1
For the boll weevil and house fly tests, half pint glass canning jars with a screened top are used. Food is supplied for the boll weevil (apple) and for the house fly (sugar water). The test insects consist of 10 adult boll weevils and 20 adult house flies. The jars containing the insects are sprayed using the turntable. The percent kill of boll weevil is determined 48 hours after the application. In the house fly test, a percent knockdown is determined one hour after application, the percent kill after 24 hours.

Test [6] concerns Corn rootworm ova. As to the kind of experiment: Southern corn rootworm ova test, sprayed filter paper, 6 days. Particulars: 144 h, lethal concentration at which 50% of the pests are killed. The test is classed as in vivo, Diabrotica undecimpunctata howardi.
Description: (§4) Diabrotica undecimpunctata howardi
as §1
(§5) For tests involving the southern corn rootworm ova and larvae, two layers of 4.25 cm. filter papers are placed in small, Petri dishes, and sprayed on the turntable with a 600 ppm solution of the test compound and air dried. About 100 eggs in about one milliliter of water are pipetted onto the filter paper and the dishes covered. These are held for 6 days and examined under the microscope. The percent kill values for ova and larvae are determined.

In test [7] the test system is Corn rootworm larva. The test can be described thus: Southern corn rootworm larvae test, sprayed filter paper, 6 days. Type of test: in vivo, Diabrotica undecimpunctata howardi. Particulars: 144 h, lethal concentration at which 50% of the pests are killed.
Description: as §4, §1, §5

Each structure is given as a SMILES string. Converted amounts (≈) assume the structure as drawn. A value given as a limit tells only on which side of the number the result lay.

In general, LC50 refers to the concentration that kills 50% of the test population. A lower LC50 goes with a more lethal substance. On to `CCCSP(=O)(OCC)Oc1ccc(S(=O)(=O)Oc2ccccc2)cc1` (centres unmarked) [Example II, O-Ethyl O-[4-(phenoxysulfonyl)phenyl]S-n-propyl phosphorothiolate], for which the LC50 in test [1] was 7.5 µg/mL (≈ 18 µM); in test [2] it was 9.8 µg/mL (≈ 23.5 µM); in test [3], 75 µg/mL (≈ 180 µM); in test [4], 32 µg/mL (≈ 76.8 µM); in test [5] it was 345 µg/mL (≈ 828 µM); in test [6], over 600 µg/mL. The LC50 in test [7] is 32 µg/mL (≈ 76.8 µM).
For `CCCSP(=O)(OCC)Oc1ccc(S(=O)(=O)Oc2ccc([N+](=O)[O-])cc2)cc1` (centres unmarked) [III, O-Ethyl-O-[4-(4'-nitrophenoxysulfonyl)phenyl]S-n-propyl phosphorothiolate], the LC50 was 6.2 µg/mL (≈ 13.4 µM) in test [1]; 5 µg/mL (≈ 10.8 µM) in test [2]; 75 µg/mL (≈ 163 µM) in test [3]; 45 µg/mL (≈ 97.5 µM) in test [4]; over 600 µg/mL in test [5]; over 600 µg/mL in test [6]. For the same molecule, in test [7], the LC50 worked out at 75 µg/mL (≈ 163 µM).
In the case of `CCCSP(=O)(OCC)Oc1ccc(S(=O)(=O)Oc2ccc(Cl)cc2)cc1` (centres unmarked) [IV, O-[4-(4'-chlorophenoxysulfonyl)phenyl]O-ethyl S-n-propyl phosphorothiolate], the LC50 in test [1] is 2.5 µg/mL (≈ 5.54 µM); in test [2], 2.9 µg/mL (≈ 6.43 µM); in test [3], 75 µg/mL (≈ 166 µM); in test [4] it was 75 µg/mL (≈ 166 µM); in test [5], 138 µg/mL (≈ 306 µM); in test [6], 142 µg/mL (≈ 315 µM). For the same molecule, in test [7], the LC50 turned out to be 4.1 µg/mL (≈ 9.09 µM).
Consider `CCOP(=O)(Oc1ccc(S(=O)(=O)Oc2ccccc2)cc1)SC(C)CC` (centres unmarked) [IX, S-sec-Butyl O-ethyl O-[4-(phenoxysulfonyl)phenyl]phosphorothiolate], for which the LC50 in test [1] came out at 2.8 µg/mL (≈ 6.5 µM); in test [2], 5.8 µg/mL (≈ 13.5 µM); in test [3] it was 15 µg/mL (≈ 34.8 µM); in test [4], 45 µg/mL (≈ 105 µM); in test [5] it was 75 µg/mL (≈ 174 µM); in test [6], 230 µg/mL (≈ 534 µM). Moreover, in test [7], the LC50 was determined as 8.4 µg/mL (≈ 19.5 µM).
With `CCCSP(=O)(OCC)Oc1ccc(S(=O)(=O)Oc2ccc(C#N)cc2)cc1` (centres unmarked) [VI, O-[4-(4'-cyanophenoxysulfonyl)phenyl]O-ethyl S-n-propyl phoshorothiolate], the LC50 in test [1] is 18 µg/mL (≈ 40.8 µM); in test [2], 6.8 µg/mL (≈ 15.4 µM); in test [3], 49 µg/mL (≈ 111 µM); in test [4], 41 µg/mL (≈ 92.9 µM); in test [5], over 600 µg/mL; in test [6], over 600 µg/mL. The molecule further gave an LC50 in test [7] of 38 µg/mL (≈ 86.1 µM).
Regarding `CCCSP(=O)(OCC)Oc1ccc(S(=O)(=O)Oc2ccc(SC)cc2)cc1` (centres unmarked) [VII, O-Ethyl-O-[4-(4'-methylthiophenoxysulfonyl)phenyl]S-n-propyl phosphorothiolate], the LC50 in test [1] is 6.4 µg/mL (≈ 13.8 µM); in test [2] it was 2.4 µg/mL (≈ 5.19 µM); in test [3], 162 µg/mL (≈ 350 µM); in test [4], 27 µg/mL (≈ 58.4 µM); in test [5] it was 550 µg/mL (≈ 1190 µM); in test [6], over 600 µg/mL. This molecule returned an LC50 in test [7] of 130 µg/mL (≈ 281 µM).
Take `CCCSP(=O)(OCC)Oc1ccc(S(=O)(=O)Oc2ccc(C)cc2)cc1` (centres unmarked) [VIII, O-Ethyl-O-[4-(4'-methylphenoxysulfonyl)phenyl]S-n-propyl phosphorothiolate]: the LC50 is 7.5 µg/mL (≈ 17.4 µM) in test [1]; 20 µg/mL (≈ 46.5 µM) in test [2]; 150 µg/mL (≈ 348 µM) in test [3]; 75 µg/mL (≈ 174 µM) in test [4]; over 600 µg/mL in test [5]; 550 µg/mL (≈ 1280 µM) in test [6]. Also, the LC50 in test [7] is 33 µg/mL (≈ 76.7 µM).
Turning to `CCOP(=O)(Oc1ccc(S(=O)(=O)Oc2ccccc2)cc1)SCC(C)C` (centres unmarked) [XI, O-Ethyl S-isobutyl O-[4-(phenoxysulfonyl)phenyl]phosphorothiolate], the LC50 in test [1] was 1.3 µg/mL (≈ 3.02 µM); in test [2] it was 6.6 µg/mL (≈ 15.3 µM); in test [3], 26 µg/mL (≈ 60.4 µM); in test [4], 49 µg/mL (≈ 114 µM); in test [5], 75 µg/mL (≈ 174 µM); in test [6], over 600 µg/mL. In addition, the LC50 in test [7] was found to be 142 µg/mL (≈ 330 µM).
As for `CCCSP(=O)(OC)Oc1ccc(S(=O)(=O)Oc2ccc([N+](=O)[O-])cc2)cc1` (centres unmarked) [XII, O-Methyl O-[4-(4'-nitrophenoxysulfonyl)phenyl]S-n-propyl phosphorothiola], the LC50 in test [1] was 26 µg/mL (≈ 58.1 µM); in test [2] it was 6.6 µg/mL (≈ 14.8 µM); in test [3] it was 54 µg/mL (≈ 121 µM); in test [4], 45 µg/mL (≈ 101 µM); in test [5], 500 µg/mL (≈ 1120 µM); in test [6] it was over 600 µg/mL. In test [7], this molecule came in with an LC50 of 75 µg/mL (≈ 168 µM).
For `CCCSP(=S)(OCC)Oc1ccc(S(=O)(=O)Oc2ccccc2)cc1` (centres unmarked) [XIII, O-Ethyl O-[4-(phenoxysulfonyl)phenyl]S-n-propyl phosphorodithiolate], the LC50 in test [1] is 38 µg/mL (≈ 87.9 µM); in test [2], 8 µg/mL (≈ 18.5 µM); in test [3] it was 150 µg/mL (≈ 347 µM); in test [4], 75 µg/mL (≈ 173 µM); in test [5], 150 µg/mL (≈ 347 µM); in test [6], over 600 µg/mL. Also, in test [7], the LC50 stood at 10 µg/mL (≈ 23.1 µM).
Consider `CCCCSP(=O)(OCC)Oc1ccc(S(=O)(=O)Oc2ccccc2)cc1` (centres unmarked) [X], for which the LC50 was 8.6 µg/mL (≈ 20 µM) in test [1]; 5 µg/mL (≈ 11.6 µM) in test [2]; 27 µg/mL (≈ 62.7 µM) in test [3]; 41 µg/mL (≈ 95.2 µM) in test [4]; over 600 µg/mL in test [5]; over 600 µg/mL in test [6]. In test [7], this molecule returned an LC50 of 75 µg/mL (≈ 174 µM).
